Experimental data from PMC5454592, “Pharmacological and Toxicological Properties of the Potent Oral γ-Secretase Modulator BPN-15606” (The Journal of Pharmacology and Experimental Therapeutics, 2017).

Assays:
[1] = test system: Notch proteolysis by γ-secretase; test: Notch assay (Myc-tagged Notch NΔE in H4-APP751 neuroglioma cells); type: cell-based
Procedure: Notch assays were carried out as described previously ([Wagner et al., 2014]).

[2] = PK in nonhuman primates (i.v./po); type: in vivo; settings: male, cynomolgus monkey, plasma; cynomolgus monkeys; 2 mg/kg po vs 1 mg/kg i.v.
Procedure: Male non-naive cynomolgus monkeys (NHP) were administered BPN-15606 as a single nasogastric (po; 2 mg/kg) or i.v. (1 mg/kg) dose to assess oral bioavailability. Whole-blood samples were collected at specific time points and processed to plasma. Study in-life was conducted at Charles River Laboratories (Reno, NV). Pharmacokinetic (PK) plasma samples were shipped to SRI International for determination of drug concentrations. Samples were analyzed at SRI International using the bioanalytical method described above and validated for NHP plasma, and the LLOQ was 1 ng/ml. Data were subjected to noncompartmental analysis using WinNonlin Phoenix Model 200 (for extravascular administration) or Model 201 (for i.v. bolus administration) and the sparse sampling feature; a uniform weighting factor was applied to each data set. Time to maximum plasma concentration (Tmax) and maximum plasma concentration (Cmax) values were determined directly from the data. Area under the plasma concentration–time curve to the last time point (AUClast) values were calculated using the log/linear trapezoidal (i.v. dose) or linear up/log down trapezoidal (po dose). Values were calculated using the plasma data from composite groups. The dose administered was input to the program as mg/kg, and as a result no additional corrections for individual body weights of the animals were necessary. […]

in vivo [3] = settings: rat
Description: The objectives of this toxicity study were to determine maximum tolerated dose (MTD), characterize the potential toxicity, and calculate toxicokinetic parameters of BPN-15606 in adult male Sprague–Dawley rats (8–10 weeks of age) following daily po dose administration for 7 consecutive days, and to evaluate its potential to damage chromosomes or cause mitotic spindle abnormalities in vivo, as measured by the incidence of micronucleus formation in RNA-containing erythrocytes (bone marrow micronucleus assay). An overview of the study design is presented in Supplemental Table 8. Male rats were administered BPN-15606 po for 7 consecutive days at 30, 100, or 300 mg/kg (groups 2, 3, and 4). A control group (group 1) was given vehicle, 15% Labrasol/85% sterile water, at an equivalent dose volume (10 ml/kg). A 375 mg/kg dose (group 5) was included for determination of day 1 plasma drug levels. Clinical observations were recorded twice daily.
All rats in groups 1, 2, and 3 (0, 30, and 100 mg/kg, respectively) survived until their scheduled day 8 sacrifice, and all tissues specified for histologic evaluation were collected. None of the group 4 (300 mg/kg) animals survived the 7-day dosing period: three were sacrificed in moribund condition, and two were found dead. Necropsy examinations were performed on all rats, but, for group 4 animals, tissues for histopathologic examination were collected only from those rats that were sacrificed in moribund condition. Histopathology assessment was conducted on all tissues collected from all animals in groups 1 and 3, and all tissues collected from group 4 animals euthanized moribund. From group 2 rats, the following tissues were examined histopathologically: duodenum; jejunum; ileum; liver; lung; pancreas; spleen; stomach; and thymus, which were evaluated based on findings at the higher dose levels. When present, grossly altered tissues were examined histopathologically from all group 1, 2, and 3 rats, and from moribund sacrifice group 4 rats. Microscopic data were recorded, and a four-step grading system (minimal, mild, moderate, and marked) was used to define gradable changes. Terminology for data capture was consistent with International Harmonization of Nomenclature and Diagnostic Criteria as promulgated by the Society of Toxicologic Pathology.

in vivo [4] = settings: cynomolgus monkey
Procedure: The objectives of this study were to determine the MTD of BPN-15606, characterize potential toxicity, and calculate toxicokinetic parameters of BPN-15606 in adult male and female cynomolgus macaques following daily po dose administration at a near-MTD dose of BPN-15606 for 7 consecutive days. In the dose escalation phase to establish the MTD (phase A), male and female cynomolgus macaques (n = 2/sex) were administered single doses of BPN-15606 at 3, 10, 30, 100, and 300 mg/kg, with 2 to 4 days between each dose escalation (Fig. 10). […] The plasma drug concentrations at the approximate Tmax increased in a dose-dependent manner. […] Comprehensive evaluation of clinical pathology parameters (clinical chemistry, hematology), gross pathology, and histopathologic parameters was carried out at SRI International, according to their standardized protocols. Tissues examined histopathologically included the following: liver, lung, stomach, duodenum, colon, spleen, pancreas, thymus, heart, brain, and kidney.

γ-secretase [5] = biological target: T1, γ-secretase (Homo sapiens, UniProt P49768); test: anti-Aβ immunoprecipitation/MALDI-TOF of neuronal cells; type: cell-based; parameters: endogenous in cells; host or cells: 'neuronal cells' (not specified further); settings: neuronal cells treated overnight with 100 nM
Procedure: (§1) All Aβ assays, including the anti-Aβ immunoprecipitation/matrix-assisted laser desorption/ionization time of flight, were carried out as described previously ([Wagner et al., 2014]).

γ-secretase [6] = biological target: T1, γ-secretase; test: SHSY5Y-APP cell-based MSD Aβ triplex screening assay; parameters: endogenous in cells; host or cells: human SH-SY5Y neuroblastoma cells stably overexpressing human APP751 wild-type
Procedure: as §1

COc1nc(-c2cc(C)c(N[C@@H](C)c3ccc(F)cc3)nn2)ccc1-n1cnc(C)c1 [BPN-15606, (S)-N-(1-(4-fluorophenyl)ethyl)-6-(6-methoxy-5-(4-methyl-1H-imidazol-1-yl)pyridin-2-yl)-4-methylpyridazin-3-amine]
Notch proteolysis ([1]; H4-APP751 neuroglioma cells transfected with Myc-tagged Notch (NΔE) construct, Fig. 3): does not inhibit Notch proteolysis | Notch cleavage ([1]; doses as high as 25 μM): does not affect Notch cleavage | bioavailability [2]: 30.8% | MTD at 7 days (in vivo [3]; male, Sprague-Dawley): ~100 mg/kg | mortality (in vivo [3]; male, Sprague-Dawley, 300 mg/kg, 7 days): either found dead or sacrificed in moribund condition on day 3 or 4 | NOEL (in vivo [3]; male, Sprague-Dawley, 7 days): ≥ 30 mg/kg | MTD at 7 days (in vivo [3]; male, Sprague-Dawley, po): ~100 mg/kg/day | no-observed-effect level (NOEL) (in vivo [3]; male, Sprague-Dawley, po, 7 days): 30 mg/kg/day | absolute number and percent of reticulocytes, of the control values (in vivo [3]; 100 mg/kg): about 20% | decrease in mean corpuscular hemoglobin (in vivo [3]; 100 mg/kg): 6.9% | increase in RBC (in vivo [3]; 100 mg/kg): 10.5% | increase in hemoglobin (in vivo [3]; 100 mg/kg): 10.9% | liver histopathology (in vivo [3]; 300 mg/kg): Hepatocyte basophilia, hypertrophy, and lipidosis | clinical observations (in vivo [3]; po, 30 mg/kg): appeared normal throughout the treatment period | NOAEL (in vivo [4]; both sexes): 30 mg/kg | MTD (in vivo [4]; both sexes, MTD after a single-dose administration): 300 mg/kg | NOEL after a single dose (in vivo [4]; both): 30 mg/kg | clinical signs after single doses (in vivo [4]; both): limited to emesis in the 100 and 300 mg/kg groups | clinical pathology parameters after single-dose administration (in vivo [4]): no apparent changes | clinical signs on repeat dosing (in vivo [4]; po, 300 mg/kg): emesis, reduced appetite, and reduced stool | gross findings at necropsy (in vivo [4]; po, 300 mg/kg): no gross findings at necropsy | hepatic histopathological findings (in vivo [4]; po, 300 mg/kg): minimal sinusoidal leukocytosis in two male monkeys and moderate focal fatty infiltration in one female monkey | renal histopathological findings (in vivo [4]; po, 300 mg/kg): mild to moderate proximal tubular necrosis, casts, and dilation with cortical and medullary subacute inflammation | Aβ37 peak (IP/MALDI-TOF) (γ-secretase [5]): significantly increased | Aβ38 peak (IP/MALDI-TOF) (γ-secretase [5]): significantly increased | Aβ40 peak (IP/MALDI-TOF) (γ-secretase [5]): significantly reduce | Aβ42 peak (IP/MALDI-TOF) (γ-secretase [5]): completely eliminate the peak | AβTotal (γ-secretase [6]; SHSY5Y-APP cells): No change | IC50 (γ-secretase [6]; human SHSY5Y neuroblastoma cells stably overexpressing human APP751 wild-type, read-out: Aβ42 IC50): 7 nM
